Experimental data published in ChEMBL document CHEMBL5620379, “Discovery, SAR and mechanistic studies of quinazolinone-based acetamide derivatives in experimental visceral leishmaniasis” (Eur J Med Chem, 2023).
pIC50: −log10 of the molar value.

What was measured:
Leishmania donovani [1] = assay: Antileishmanial activity against Leishmania donovani amastigotes infected in J774 macrophage assessed as inhibition of parasite growth incubated for 48 hrs by luciferase assay; format: functional, organism-based; conditions: J774, 48 h
J774 [2] = assay: Cytotoxicity against mouse J774 cells at 50 uM incubated for 72 hrs by MTT assay relative to control; format: toxicity, cell-based; conditions: j774, 72 h
[3] = Selectivity index, ratio of CC50 for mouse J774 macrophage to IC50 for Leishmania donovani amastigotes infected in J774 macrophage; format: toxicity; conditions: J774 macrophages, read-out: Ratio CC50/IC50
Leishmania donovani [4] = assay: Antileishmanial activity against Leishmania donovani promastigotes measured after 48 hrs by MTT assay; format: functional, organism-based
J774 [5] = assay: Cytotoxicity against mouse J774 macrophage incubated for 72 hrs by MTT assay; format: functional
J774 [6] = assay: Cytotoxicity against mouse J774 cells at 25 uM incubated for 72 hrs by MTT assay relative to control; format: toxicity, cell-based; conditions: j774, 72 h
J774 [7] = assay: Cytotoxicity against mouse J774 cells at 12.5 uM incubated for 72 hrs by MTT assay relative to control; format: toxicity, cell-based; conditions: j774, 72 h

## CCn1c(-c2ccc(OCC(=O)Nc3cccc(C(F)(F)F)c3)cc2)nc2ccccc2c1=O
Leishmania donovani [1]
  pIC50: 4.68
J774 [2]
  Activity: 47.72%
[3]
  selectivity ratio: 2.15
Leishmania donovani [4]
  pIC50: 4.70
J774 [5]
  CC50: 45 µM
J774 [6]
  Activity: 77.31%
J774 [7]
  Activity: 87.75%

## Cc1ccc(NC(=O)COc2ccc(-c3nc4ccccc4c(=O)n3C)cc2)cc1
Leishmania donovani [1]
  pIC50: 4.61
J774 [2]
  Activity: 49.93%
[3]
  selectivity ratio: 2.07
Leishmania donovani [4]
  pIC50: 4.66
J774 [5]
  CC50: 50.7 µM
J774 [6]
  Activity: 81.98%
J774 [7]
  Activity: 85.59%

## Cn1c(-c2ccc(OCC(=O)Nc3ccc(F)cc3)cc2)nc2ccccc2c1=O
Leishmania donovani [1]
  pIC50: 4.94
J774 [2]
  Activity: 38.87%
[3]
  selectivity ratio: 3.62
Leishmania donovani [4]
  pIC50: 5.10
J774 [5]
  CC50: 41.6 µM
J774 [6]
  Activity: 69.62%
J774 [7]
  Activity: 82.8%

## Cn1c(-c2cccc(OCC(=O)Nc3ccc(Cl)cc3)c2)nc2ccccc2c1=O
Leishmania donovani [1]
  pIC50: 4.92
J774 [2]
  Activity: 55.23%
[3]
  selectivity ratio: 4.54
Leishmania donovani [4]
  pIC50: 5.04
J774 [5]
  CC50: 54.1 µM
J774 [6]
  Activity: 71.35%
J774 [7]
  Activity: 84.53%

## Cn1c(-c2ccc(OCC(=O)Nc3ccccc3)cc2)nc2ccccc2c1=O
Leishmania donovani [1]
  pIC50: 4.65
J774 [2]
  Activity: 42.62%
[3]
  selectivity ratio: 1.91
Leishmania donovani [4]
  pIC50: 4.75
J774 [5]
  CC50: 43.2 µM
J774 [6]
  Activity: 78.47%
J774 [7]
  Activity: 87.94%

## CCn1c(-c2ccc(OCC(=O)Nc3ccc(F)cc3)cc2)nc2ccccc2c1=O
J774 [2]
  Activity: 34.39%
J774 [6]
  Activity: 43.73%
J774 [7]
  Activity: 59.51%

## Cn1c(-c2ccc(OCC(=O)Nc3ccc(Cl)cc3)cc2)nc2ccccc2c1=O
Leishmania donovani [1]
  pIC50: 4.65
J774 [2]
  Activity: 58.88%
[3]
  selectivity ratio: 2.78
Leishmania donovani [4]
  pIC50: 4.79
J774 [5]
  CC50: 61.8 µM
J774 [6]
  Activity: 81.59%
J774 [7]
  Activity: 85.35%

## Cn1c(-c2cccc(OCC(=O)Nc3cccc(C(F)(F)F)c3)c2)nc2ccccc2c1=O
J774 [2]
  Activity: 36.03%
J774 [6]
  Activity: 53.5%
J774 [7]
  Activity: 69.23%

## Cc1ccc(NC(=O)COc2ccc(-c3nc4ccccc4c(=O)n3C)cc2)cc1C
J774 [2]
  Activity: 31.465%
J774 [6]
  Activity: 46.38%
J774 [7]
  Activity: 67.4%

## Cc1ccc(NC(=O)COc2ccc(-c3nc4ccccc4c(=O)n3C)cc2)cc1Cl
J774 [2]
  Activity: 47.78%
J774 [6]
  Activity: 52.13%
J774 [7]
  Activity: 68.41%

## Cn1c(-c2ccc(OCC(=O)Nc3ccccn3)cc2)nc2ccc(Cl)cc2c1=O
J774 [2]
  Activity: 39.88%
J774 [6]
  Activity: 59.37%
J774 [7]
  Activity: 65.58%

## CCn1c(-c2ccc(OCC(=O)Nc3ccc(Cl)cc3)cc2)nc2ccccc2c1=O
J774 [2]
  Activity: 32.52%
J774 [6]
  Activity: 47.53%
J774 [7]
  Activity: 67.21%

## Cn1c(-c2cccc(OCC(=O)Nc3ccc(F)cc3)c2)nc2ccccc2c1=O
J774 [2]
  Activity: 31.32%
J774 [6]
  Activity: 56.86%
J774 [7]
  Activity: 66.92%

## Cn1c(-c2ccc(OCC(=O)Nc3ccncc3)cc2)nc2ccccc2c1=O
J774 [2]
  Activity: 40.96%
J774 [6]
  Activity: 51.89%
J774 [7]
  Activity: 71.91%

## COc1ccc(NC(=O)COc2cccc(-c3nc4ccccc4c(=O)n3C)c2)cc1
J774 [2]
  Activity: 29.78%
J774 [6]
  Activity: 52.92%
J774 [7]
  Activity: 64.08%

## Cc1ccc(NC(=O)COc2cccc(-c3nc4ccccc4c(=O)n3C)c2)cc1
J774 [2]
  Activity: 31.44%
J774 [6]
  Activity: 41.69%
J774 [7]
  Activity: 65.55%

## CC(C)c1ccc(NC(=O)COc2ccc(-c3nc4ccccc4c(=O)n3C)cc2)cc1
J774 [2]
  Activity: 49.31%
J774 [6]
  Activity: 67.4%
J774 [7]
  Activity: 69.76%

## CCn1c(-c2ccc(OCC(=O)Nc3ccc(OC)cc3)cc2)nc2ccccc2c1=O
J774 [2]
  Activity: 43.01%
J774 [6]
  Activity: 62.11%
J774 [7]
  Activity: 67.45%

## Cn1c(-c2ccc(OCC(=O)Nc3ccc(C(C)(C)C)cc3)cc2)nc2ccccc2c1=O
J774 [2]
  Activity: 26.84%
J774 [6]
  Activity: 55.66%
J774 [7]
  Activity: 59.75%

## COc1cc(NC(=O)COc2ccc(-c3nc4ccccc4c(=O)n3C)cc2)cc(OC)c1OC
J774 [2]
  Activity: 39.78%
J774 [6]
  Activity: 51.67%
J774 [7]
  Activity: 69.04%
